Columns and labels:
clinical [1] = experiment: clinical
Procedure: (§1) Berzosertib plasma protein binding was assessed in vitro using rapid equilibrium dialysis (RED) devices (Thermo Fisher Scientific, Waltham, Massachusetts).
(§2) Plasma pharmacokinetic parameters were derived from the data by noncompartmental methods with WinNonlin (Certara). Statistical analyses for pharmacokinetic parameter values were performed using SPSS 27.0 for Windows (SPSS Inc, Chicago, Illinois).

[2] = system: patients with advanced solid tumors; experiment: Phase 1 safety of berzosertib plus irinotecan: treatment-related adverse events (CTCAE v5.0), DLT, MTD/RP2D; format: in vivo
Procedure: Berzosertib was supplied under a Collaborative Research and Development Agreement among NCI, Vertex Pharmaceuticals, and EMD Serono. Irinotecan was obtained from commercial sources.
Treatment cycles were 28 days long (Supporting Information S1: Figure S1).
A history and physical examination were conducted at baseline and before each cycle. Complete blood counts and serum chemistries were performed at baseline and weekly during C1 and every 2 weeks thereafter. Toxicities were graded using NCI Common Terminology Criteria for Adverse Events (version 5.0) and defined as adverse events that were possibly, probably, or definitely related to treatment. Radiographic evaluation was performed at baseline and every 8 weeks for tumor response based on Response Evaluation Criteria in Solid Tumors (RECIST) version 1.1.
DLs were evaluated using a modified Storer’s up and down design with the plan of enrolling up to 36 evaluable patients during dose escalation (Supporting Information S1: Figure S1).[8] Stage I of the Modified Storer’s up and down design is single patient dose escalation until a DLT is observed. Once a DLT is observed, patients are treated in cohorts of five in stage II of the design. The MTD was defined as the highest DL tested at which ≤20% patients experience dose limiting toxicity (DLT) during C1 of therapy.

[3] = system: γH2AX, pS343-NBS1, and pS824-KAP1; experiment: Tumor DNA damage signaling, multiplex immunofluorescence of paired biopsies; format: in vivo, human; conditions: 18–22 hours after end of irinotecan infusion (C1D-13), one colon cancer patient; 4% is the assay baseline
From the text: Paired tumor biopsies were collected from patients enrolled in the expansion cohort. […] The staining of FFPE tissue sections used the BOND RX autostainer (Leica Biosystems). For γH2AX and […]-NBS1 analysis, biotin-conjugated γH2AX (clone JBW301; EMD Millipore) and a custom-conjugated […]-NBS1-DIG (clone EP178; Abcam) antibodies were detected with the use of streptavidin labeled with Alexa Fluor 488 and Alexa Fluor 647 custom-conjugated IgG Fraction Monoclonal Mouse Anti-Digoxin antibody, respectively. For […]-KAP1 analysis, anti-[…]-KAP1 antibody (clone EPR5248; Abcam) custom conjugated to dinitrophenol (Molecular Probes, Inc) was detected using Alexa Fluor 488 conjugated anti-dinitrophenyl KLH rabbit polyclonal antibody. In addition, β-catenin antibody custom conjugated to Alexa Fluor 546 was used to define tumor areas in all biomarker analyses. For γH2AX and […]-NBS1 analysis, fluorescent whole slide images were acquired at 20× using Leica's Aperio FL scanner. Images were then analyzed using a custom algorithm build in Definiens Tissue Studio Analysis software (formerly Definiens AG). For […]-KAP1 analysis, whole slide fluorescent images were acquired at 20× using ZEISS Axioscan 7 scanner. Images were analyzed using a custom algorithm in HALO software (Indica Labs).

[4] = system: ATM and H2AX phosphorylation in PBMCs; experiment: PBMC DNA damage signaling, quasi-quantitative dual multiplexed immunoblot; format: in vivo, human
Procedure: Blood was processed and analysis performed as described.[11]–[13]

p-Chk1 = conditions: reported value, no reference given; cited from earlier work
[5] = design: method as in PMID 32568634; conditions: highest dose level 240 mg/m^2 once or twice weekly; cited from earlier work
clinical [6] = conditions: human, in vivo
Procedure: as §1, §2

[7] = Berzosertib plasma protein binding in vitro, rapid equilibrium dialysis; format: in vitro ADME; conditions: human plasma, 300 – 100,000 µg/L tested
[8] = D15, irinotecan 180/150 mg/m^2 with berzosertib (N=41), geometric mean (SD)
[9] = D-14, irinotecan 180 mg/m^2 alone (N=55), geometric mean (SD)
[10] = N=39, with/without berzosertib, geometric mean (SD)
[11] = irinotecan 180 mg/m^2 (N=55), D-14 (alone), geometric mean (SD)

Compound: CCc1c2c(nc3ccc(OC(=O)N4CCC(N5CCCCC5)CC4)cc13)-c1cc3c(c(=O)n1C2)COC(=O)[C@]3(O)CC [irinotecan]
- AUC(0-inf) (clinical [1]; human, in vivo, 180 mg/m2): 14000 ng·h/mL
- Cmax (clinical [1]; human, in vivo, 180 mg/m2): 2180 ng/mL
- MTD and RP2D, irinotecan dose ([2]; with berzosertib 270 mg/m^2, iv every 2 weeks (DL4)): 180 mg/m^2
- γH2AX and pNBS1 in tumor biopsy [3]: > 4 % nuclear area positive (NAP)
- induction of H2AX phosphorylation in PBMCs ([4]; 4 hours 30 minutes, returned to baseline by 24 hours): 10 fold
- induction of ATM in PBMCs ([4]; irinotecan alone (C1D-14)): no induction of ATM

Compound: CCc1c2c(nc3ccc(OC(=O)N4CCC(NCCCCC(=O)O)CC4)cc13)-c1cc3c(c(=O)n1C2)COC(=O)[C@]3(O)CC [APC]
- APC/ IRI AUC Ratio (clinical [1]; [8]): 0.221 (1.96)
- APC/ IRI AUC Ratio (clinical [1]; [9]): 0.196 (1.80)
- APC/ IRI AUC Ratio, D15/D-14 (clinical [1]; [10]): 1.09 (1.50)
- APC AUC0-inf (clinical [1]; human, in vivo, 180 mg/m2): 2.74 (1.92) mg/L•h
- APC Cmax (clinical [1]; human, in vivo, 180 mg/m2): 201 (1.81) µg/L
- APC t½ (clinical [1]; irinotecan 180 mg/m^2 (N=55), day -14 of cycle 1, geometric mean (SD)): 12.1 (1.3) h

Compound: CCc1c2c(nc3ccc(O)cc13)-c1cc3c(c(=O)n1C2)COC(=O)[C@]3(O)CC [SN38]
- SN38/ IRI AUC Ratio (clinical [1]; [8]): 0.0282 (1.70)
- SN38/ IRI AUC Ratio (clinical [1]; [9]): 0.0268 (1.56)
- SN38/ IRI AUC Ratio, D15/D-14 (clinical [1]; [10]): 1.07 (1.48)
- 90% CI of the AUC ratio (presence/absence of berzosertib) (clinical [1]; bioequivalence approach): fell within the traditional boundaries of 80%–125%
- SN38 AUC ratio D15/D-14, L-90%CI (clinical [1]; bioequivalence assessment, lower 90% confidence interval): 93.6%
- SN38 AUC ratio D15/D-14, Average BE (clinical [1]; bioequivalence assessment, presence/absence of berzosertib): 106.6%
- SN38 AUC ratio D15/D-14, U-90%CI (clinical [1]; bioequivalence assessment, upper 90% confidence interval): 121.5%
- SN38 AUC0-inf (clinical [1]; [11]): 0.38 (1.8) mg/L•h
- SN38 Cmax (clinical [1]; [11]): 25.0 (1.78) µg/L
- SN38 t½ (clinical [1]; [11]): 19.9 (1.3) h
- SN38 AUC Ratio D15/D-14 (clinical [1]; presence/absence of berzosertib, dose-normalized AUC, geometric mean (SD)): 1.07 (1.7)

Compound: CNCc1ccc(-c2cc(-c3nc(-c4ccc(S(=O)(=O)C(C)C)cc4)cnc3N)on2)cc1 [berzosertib]
- human equivalent p-Chk1 IC50 (p-Chk1): approximately 110 ng/mL
- berzosertib exposure (AUC) versus cycle 1 toxicity grade ([2]; human, in vivo): higher in patients with C1 higher any grade toxicity and higher hematologic grade toxicity
- MTD and RP2D, berzosertib dose ([2]; with irinotecan 180 mg/m^2, iv every 2 weeks (DL4)): 270 mg/m^2
- dose-limiting toxicities, monotherapy [5]: no dose-limiting toxicities
- Cl (clinical [6]): 24.3 (1.30) L/h/m^2
- Cmax/Dose (clinical [6]): 4.90 (1.45) µg/L / mg/m^2
- Tmax (clinical [6]): 0.61 h
- Vss (clinical [6]): 530 (1.30) L/m^2
- Vz (clinical [6]): 612 (1.31) L/m^2
- AUC(0-inf) (clinical [6]; 60 mg/m2): 2330 ng·h/mL
- Cl (clinical [6]; 60 mg/m2): 25.7 (-) L/h/m^2
- Cmax (clinical [6]; 60 mg/m2): 343 ng/mL
- Cmax/Dose (clinical [6]; 60 mg/m2): 5.72 (-) µg/L / mg/m^2
- Tmax (clinical [6]; 60 mg/m2): 0.45 h
- Vss (clinical [6]; 60 mg/m2): 459 (-) L/m^2
- half-life (clinical [6]; 60 mg/m2): 14.4 h
- AUC(0-inf) (clinical [6]; 120 mg/m2): 4190 ng·h/mL
- Cl (clinical [6]; 120 mg/m2): 28.7 (1.40) L/h/m^2
- Cmax (clinical [6]; 120 mg/m2): 535 ng/mL
- Tmax (clinical [6]; 120 mg/m2): 0.54 h
- half-life (clinical [6]; 120 mg/m2): 14.1 h
- AUC(0-inf) (clinical [6]; 180 mg/m2): 8550 ng·h/mL
- Cl (clinical [6]; 180 mg/m2): 21.1 (1.20) L/h/m^2
- Cmax (clinical [6]; 180 mg/m2): 1060 ng/mL
- Cmax/Dose (clinical [6]; 180 mg/m2): 5.92 (1.44) µg/L / mg/m^2
- Tmax (clinical [6]; 180 mg/m2): 0.66 h
- Vss (clinical [6]; 180 mg/m2): 422 (1.37) L/m^2
- half-life (clinical [6]; 180 mg/m2): 16.1 h
- AUC(0-inf) (clinical [6]; 270 mg/m2): 11000 ng·h/mL
- Cl (clinical [6]; 270 mg/m2): 24.6 (1.30) L/h/m^2
- Cmax (clinical [6]; 270 mg/m2): 1260 ng/mL
- Cmax/Dose (clinical [6]; 270 mg/m2): 4.67 (1.46) µg/L / mg/m^2
- Tmax (clinical [6]; 270 mg/m2): 0.61 h
- Vss (clinical [6]; 270 mg/m2): 578 (1.24) L/m^2
- half-life (clinical [6]; 270 mg/m2): 18.8 h
- half-life (clinical [6]; iv): ~17 h
- total clearance (clinical [6]; iv): 24 L/h/m^2
- volume of distribution (clinical [6]; iv): approximately 530 L/m^2
- concentration from which the free fraction increased (plasma protein binding) [7]: approximately 30 μg/mL

— article PMC12952245 (Cancer, 2025)
